Test results published in ChEMBL document CHEMBL1671617, “Correlation of antimicrobial resistance with beta-lactamases, the OmpA-like porin, and efflux pumps in clinical isolates of Acinetobacter baumannii endemic to New York City” (2008).

Columns and labels:
Type in all cases: functional
[1] = test system: Acinetobacter baumannii; test: Antimicrobial activity against Acinetobacter baumannii alpha clonal group isolate 3 expressing ampC, ompA, adeB, adeM, aacC1, aadA1 by Etest method
[2] = test system: Acinetobacter baumannii; test: Antimicrobial activity against ISAba1 linked with the blaOXA-51-type beta-lactamase harboring Acinetobacter baumannii beta clonal group isolate 16 expressing ompA, adeB, adeM, aacA4, blaSHV-5 by Etest method
[3] = test system: Acinetobacter baumannii; test: Antimicrobial activity against Acinetobacter baumannii alpha clonal group isolate 4 expressing ampC, ompA, adeB, adeM, aacC1, aadA1 by Etest method
[4] = test system: Acinetobacter baumannii; test: Antimicrobial activity against ISAba1 linked with the blaOXA-51-type beta-lactamase harboring Acinetobacter baumannii alpha clonal group isolate 8 expressing ampC, ompA, adeB, adeM, aacC1, aadA1 by Etest method
[5] = test system: Acinetobacter baumannii; test: Antimicrobial activity against ISAba1 linked with the blaOXA-51-type beta-lactamase harboring Acinetobacter baumannii zeta clonal group isolate 22 expressing ampC, ompA, adeB, adeM, aadA1, aacA4, aacC2, blaSHV-5 by Etest method
[6] = test system: Acinetobacter baumannii; test: Antimicrobial activity against Acinetobacter baumannii nu clonal group isolate 34 expressing ampC, ompA, adeB, adeM by Etest method
[7] = test system: Acinetobacter baumannii; test: Antimicrobial activity against Acinetobacter baumannii alpha clonal group isolate 5 expressing ampC, ompA, adeB, adeM, aacC1, aadA1 by Etest method
[8] = test system: Acinetobacter baumannii; test: Antimicrobial activity against ISAba1 linked with the blaOXA-51-type beta-lactamase harboring Acinetobacter baumannii alpha clonal group isolate 1 expressing ampC, ompA, adeB, adeM by Etest method
[9] = test system: Acinetobacter baumannii; test: Antimicrobial activity against ISAba1 linked with the blaOXA-51-type beta-lactamase harboring Acinetobacter baumannii zeta clonal group isolate 21 expressing ampC, ompA, adeB, adeM, aacC2, blaSHV-5 by Etest method
[10] = test system: Acinetobacter baumannii; test: Antimicrobial activity against ISAba1 linked with the blaOXA-51-type beta-lactamase harboring Acinetobacter baumannii beta clonal group isolate 14 expressing ompA, adeB, adeM, aacA4, blaSHV-5 by Etest method
[11] = test system: Acinetobacter baumannii; test: Antimicrobial activity against ISAba1 linked with the blaOXA-51-type beta-lactamase harboring Acinetobacter baumannii zeta clonal group isolate 20 expressing ampC, ompA, adeB, adeM, aacC2 by Etest method
[12] = test system: Acinetobacter baumannii; test: Antimicrobial activity against Acinetobacter baumannii nu clonal group isolate 33 expressing ampC, ompA, adeB, adeM by Etest method
[13] = test system: Acinetobacter baumannii; test: Antimicrobial activity against Acinetobacter baumannii unique clonal group isolate 38 expressing ampC, ompA, adeB, adeM by Etest method
[14] = test system: Acinetobacter baumannii; test: Antimicrobial activity against ISAba1 linked with the blaOXA-51-type beta-lactamase harboring Acinetobacter baumannii lambda clonal group isolate 30 expressing ampC, ompA, adeB, adeM, aadB, aadA1 by Etest method
[15] = test system: Acinetobacter baumannii; test: Antimicrobial activity against Acinetobacter baumannii unique clonal group isolate 37 expressing ampC, ompA, adeB, adeM by Etest method
[16] = test system: Acinetobacter baumannii; test: Antimicrobial activity against ISAba1 linked with the blaOXA-51-type beta-lactamase harboring Acinetobacter baumannii zeta clonal group isolate 23 expressing ampC, ompA, adeB, adeM, aadA1, aacA4, aacC2, aphA6 by Etest method
[17] = test system: Acinetobacter baumannii; test: Antimicrobial activity against Acinetobacter baumannii nu clonal group isolate 31 expressing ampC, ompA, adeB, adeM, aadB, aadA2 by Etest method
[18] = test system: Acinetobacter baumannii; test: Antimicrobial activity against ISAba1 linked with the blaOXA-51-type beta-lactamase harboring Acinetobacter baumannii beta clonal group isolate 15 expressing ompA, adeB, adeM, aacA4, blaSHV-5 by Etest method
[19] = test system: Acinetobacter baumannii; test: Antimicrobial activity against ISAba1 linked with the blaOXA-51-type beta-lactamase harboring Acinetobacter baumannii lambda clonal group isolate 28 expressing ampC, ompA, adeM, aadB, aadA1 by Etest method
[20] = test system: Acinetobacter baumannii; test: Antimicrobial activity against Acinetobacter baumannii nu clonal group isolate 32 expressing ampC, ompA, adeB, adeM, aadB, aadA2 by Etest method
[21] = test system: Acinetobacter baumannii; test: Antimicrobial activity against ISAba1 linked with the blaOXA-51-type beta-lactamase harboring Acinetobacter baumannii unique clonal group isolate 40 expressing ampC, ompA, adeB, adeM, aadA1, aacA4, aacC2, blaSHV-5 by Etest method
[22] = test system: Acinetobacter baumannii; test: Antimicrobial activity against ISAba1 linked with the blaOXA-51-type beta-lactamase harboring Acinetobacter baumannii zeta clonal group isolate 25 expressing ampC, ompA, adeB, adeM, aadA1, aacA4, aacC2, blaSHV-5 by Etest method
[23] = test system: Acinetobacter baumannii; test: Antimicrobial activity against ISAba1 linked with the blaOXA-51-type beta-lactamase harboring Acinetobacter baumannii alpha clonal group isolate 6 expressing ampC, ompA, adeB, adeM, aacC1, aadA1 by Etest method
[24] = test system: Acinetobacter baumannii; test: Antimicrobial activity against ISAba1 linked with the blaOXA-51-type beta-lactamase harboring Acinetobacter baumannii zeta clonal group isolate 26 expressing ampC, ompA, adeB, adeM, aadA1, aacA4, aacC2, blaSHV-5 by Etest method
[25] = test system: Acinetobacter baumannii; test: Antimicrobial activity against ISAba1 linked with the blaOXA-51-type beta-lactamase harboring Acinetobacter baumannii beta clonal group isolate 9 expressing ampC, ompA, adeB, adeM by Etest method
[26] = test system: Acinetobacter baumannii; test: Antimicrobial activity against Acinetobacter baumannii alpha clonal group isolate 2 expressing ampC, ompA, adeB, adeM, aacC1, aadA1 by Etest method
[27] = test system: Acinetobacter baumannii; test: Antimicrobial activity against ISAba1 linked with the blaOXA-51-type beta-lactamase harboring Acinetobacter baumannii alpha clonal group isolate 7 expressing ampC, ompA, adeB, adeM, blaSHV-5 by Etest method
[28] = test system: Acinetobacter baumannii; test: Antimicrobial activity against Acinetobacter baumannii eta clonal group isolate 36 expressing ampC, ompA, adeB, adeM by Etest method
[29] = test system: Acinetobacter baumannii; test: Antimicrobial activity against ISAba1 linked with the blaOXA-51-type beta-lactamase harboring Acinetobacter baumannii zeta clonal group isolate 24 expressing ampC, ompA, adeB, adeM, aadA1, aacA4, aacC2, blaSHV-5 by Etest method
[30] = test system: Acinetobacter baumannii; test: Antimicrobial activity against ISAba1 linked with the blaOXA-51-type beta-lactamase harboring Acinetobacter baumannii beta clonal group isolate 13 expressing ompA, adeB, adeM, aacA4, blaSHV-5 by Etest method
[31] = test system: Acinetobacter baumannii; test: Antimicrobial activity against ISAba1 linked with the blaOXA-51-type beta-lactamase harboring Acinetobacter baumannii beta clonal group isolate 12 expressing ompA, adeB, adeM, aacA4, aacC2, blaSHV-5 by Etest method
[32] = test system: Acinetobacter baumannii; test: Antimicrobial activity against Acinetobacter baumannii eta clonal group isolate 35 expressing ampC, ompA, adeB, adeM by Etest method
[33] = test system: Acinetobacter baumannii; test: Antimicrobial activity against ISAba1 linked with the blaOXA-51-type beta-lactamase harboring Acinetobacter baumannii lambda clonal group isolate 29 expressing ampC, ompA, adeM, aadB, aadA1 by Etest method
[34] = test system: Acinetobacter baumannii; test: Antimicrobial activity against ISAba1 linked with the blaOXA-51-type beta-lactamase harboring Acinetobacter baumannii beta clonal group isolate 10 expressing ompA, adeB, adeM, aacA4, blaSHV-5 by Etest method
[35] = test system: Acinetobacter baumannii; test: Antimicrobial activity against Acinetobacter baumannii unique clonal group isolate 39 expressing ampC, ompA, adeM by Etest method
[36] = test system: Acinetobacter baumannii; test: Antimicrobial activity against ISAba1 linked with the blaOXA-51-type beta-lactamase harboring Acinetobacter baumannii zeta clonal group isolate 19 expressing ampC, ompA, adeB, adeM, aacC2 by Etest method
[37] = test system: Acinetobacter baumannii; test: Antimicrobial activity against ISAba1 linked with the blaOXA-51-type beta-lactamase harboring Acinetobacter baumannii beta clonal group isolate 18 expressing ompA, adeB, adeM, aacA4, blaSHV-5 by Etest method
[38] = test system: Acinetobacter baumannii; test: Antimicrobial activity against ISAba1 linked with the blaOXA-51-type beta-lactamase harboring Acinetobacter baumannii beta clonal group isolate 11 expressing ompA, adeB, adeM, blaSHV-5 by Etest method
[39] = test system: Acinetobacter baumannii; test: Antimicrobial activity against Acinetobacter baumannii lambda clonal group isolate 27 expressing ampC, ompA, adeB, adeM, aadB, aadA1 by Etest method
[40] = test system: Acinetobacter baumannii; test: Antimicrobial activity against ISAba1 linked with the blaOXA-51-type beta-lactamase harboring Acinetobacter baumannii beta clonal group isolate 17 expressing ompA, adeB, adeM, aacA4, blaSHV-5 by Etest method

Measured: MIC

NCC[C@H](O)C(=O)N[C@@H]1C[C@H](N)[C@@H](O[C@H]2O[C@H](CN)[C@@H](O)[C@H](O)[C@H]2O)[C@H](O)[C@H]1O[C@H]1O[C@H](CO)[C@@H](O)[C@H](N)[C@H]1O [AMIKACIN]
1.5 µg/mL: [8] | [13] | [23] | [35]
32 µg/mL: [21] | [22] | [24] | [29]
8 µg/mL: [2] | [10] | [18] | [30] | [40]
24 µg/mL: [16] | [31] | [37]
< 0.5 µg/mL: [39]
6 µg/mL: [15] | [34]
2 µg/mL: [1] | [3] | [7] | [26] | [27]
4 µg/mL: [4] | [17] | [20] | [25]
48 µg/mL: [5] | [14]
3 µg/mL: all other assays above

CC(C)(O/N=C(\C(=O)N[C@@H]1C(=O)N2C(C(=O)[O-])=C(C[n+]3ccccc3)CS[C@H]12)c1csc(N)n1)C(=O)O [CEFTAZIDIME]
16 µg/mL: [13] | [16]
12 µg/mL: [15] | [28] | [32]
32 µg/mL: [9]
4 µg/mL: [17] | [20] | [35]
6 µg/mL: [6] | [12]
96 µg/mL: [4] | [37]
> 48 µg/mL: [2] | [10] | [18] | [30] | [40]
128 µg/mL: [38]
48 µg/mL: [25] | [34]
24 µg/mL: [11] | [36]
> 256 µg/mL: all other assays above
